Test results taken from patent US8211894B2, “Heteroarylalkyl-8-azabicyclo[3.2.1]octane compounds as mu opioid receptor antagonists” (Theravance, Inc., priority 2007, dated 2012).
Read-outs that look alike come from different tables or passages of the source.

How the values were obtained:
human mu opioid receptor [1] = biological target: T1, human mu opioid receptor (Homo sapiens, UniProt P35372); assay: Radioligand binding assay, human mu opioid receptor ([3H]-Diprenorphine displacement)
T1 construct: host or cells: CHO-K1

human mu opioid receptor [2] = biological target: T1, human mu opioid receptor; assay: Human mu GTP-Eu nucleotide exchange assay (agonist mediated activation, CHO-K1 membranes); type: biochemical; conditions: bound GTP-Eu relative to DAMGO (IA=100); read-out: intrinsic activity (IA), expressed as a percentage
[3] = tested on: loperamide-induced delayed gastric emptying; assay: Rat gastric emptying assay (reversal of loperamide-induced delayed gastric emptying); type: in vivo; conditions: administered orally, loperamide 1 mg/kg s.c., gastric emptying model
Procedure: Assay 3: Rat Model of In Vivo Efficacy In this assay the efficacy of test compounds was evaluated in a model of gastrointestinal transit, which evaluates peripheral activity. This study was approved by the Institutional Animal Care and Use Committee at […]. and conformed to the Guide for the Care and Use of Laboratory Animals published by the National Academy of Sciences (©1996). a. Rat Gastric Emptying Assay Test compounds were evaluated in the rat gastric emptying assay to determine their ability to reverse loperamide-induced delayed gastric emptying. […] The administration of test compound was followed by subcutaneous administration of loperamide at a dose of 1 mg/kg or vehicle. Five minutes post loperamide or vehicle administration, a non-nutritive, non-absorbable charcoal meal was administered via oral gavage and animals were allowed free access to water for the sixty minute duration of the experiment. […] Gastric weight was then determined after removal of the ligatures. b. Data Analysis and Results Data was analyzed using the GraphPad Prism Software package (GraphPad Software, Inc., San Diego, Calif.). Percent reversal curves were constructed by non-linear regression analysis using the sigmoidal dose response (variable slope) model and best-fit ID50 values were calculated. […]

[4] = [3H]-Diprenorphine 0.5 nM, CHO-K1 membranes, read-out: pKi at the human mu opioid receptor (converted)

T1 sequence (P35372 whole entry): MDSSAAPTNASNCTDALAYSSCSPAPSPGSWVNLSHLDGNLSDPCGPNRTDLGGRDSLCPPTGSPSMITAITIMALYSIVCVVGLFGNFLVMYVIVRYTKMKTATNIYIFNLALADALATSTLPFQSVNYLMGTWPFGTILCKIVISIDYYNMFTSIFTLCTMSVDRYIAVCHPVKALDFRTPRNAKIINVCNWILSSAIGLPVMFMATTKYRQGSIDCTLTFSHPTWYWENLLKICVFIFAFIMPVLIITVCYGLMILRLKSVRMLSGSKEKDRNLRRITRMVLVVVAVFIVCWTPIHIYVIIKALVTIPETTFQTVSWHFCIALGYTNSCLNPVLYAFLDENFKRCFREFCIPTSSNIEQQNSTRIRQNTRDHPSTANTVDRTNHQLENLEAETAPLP

SMILES	Ki (human mu opioid receptor [1]) [nM]	Emax (human mu opioid receptor [2]) [%]	ID50, dose required for 50% reversal of the effects of loperamide [3] [mg/kg]	Ki (human mu opioid receptor [1]; [4]) [nM]
NC(=O)c1cccc([C@H]2C[C@H]3CC[C@@H](C2)N3Cc2cn(C3CCCCC3)nn2)c1 [Example 1, 3-endo-[8-(1-Cyclohexyl-1H-[1,2,3]-triazol-4-ylmethyl)-8-azabicyclo[3.2.1]oct-3-yl]benzamide]	0.0501	-4	0.13	
NC(=O)c1cccc([C@H]2C[C@H]3CC[C@@H](C2)N3Cc2cn(C3CCC(F)(F)CC3)nn2)c1 [Example 4, 3-endo-{8-[1-(4,4-Difluorocyclohexyl)-1H-1,2,3-triazol-4-ylmethyl]-8-azabicyclo[3.2.1]oct-3-yl}benzamide]	0.1	0	0.25	
CCCc1cn(CCN2[C@@H]3CC[C@H]2C[C@@H](c2cccc(C(N)=O)c2)C3)nn1 [Example 8, 3-endo-{8-[2-(4-Propyl-[1,2,3]-triazol-1-yl)-ethyl]-8-aza-bicyclo[3.2.1]oct-3-yl}benzamide]		-4		0.0794
NC(=O)c1cccc([C@H]2C[C@H]3CC[C@@H](C2)N3CCCn2cc(-c3ccc(F)cc3F)nn2)c1 [Example 9, 3-endo-(8-{3-[4-(2,4-Difluorophenyl)-[1,2,3]-triazol-1-yl]-propyl}-8-azabicyclo[3.2.1]oct-3-yl)benzamide]		-1		0.0501
NC(=O)c1cccc([C@H]2C[C@H]3CC[C@@H](C2)N3Cc2cncn2Cc2ccccc2)c1 [Example 11, 3-endo-[8-(3-Benzyl-1H-imidazol-4-ylmethyl)-8-aza-bicyclo[3.2.1]oct-3-yl]-benzamide]		6		0.631
CC(C)Cc1nc(CCCN2[C@@H]3CC[C@H]2C[C@@H](c2cccc(C(N)=O)c2)C3)no1 [Example 14, 3-endo-{8-[3-(5-Isobutyl-1,2,4-oxadiazol-3-yl)-propyl]-8-aza-bicyclo[3.2.1]oct-3-yl}benzamide]		-11		1.58
